Source: paper PMC6010138, “Synthesis and carbonic anhydrase I, II, VII, and IX inhibition studies with a series of benzo[d]thiazole-5- and 6-sulfonamides” (Journal of Enzyme Inhibition and Medicinal Chemistry, 2017)

Legend:
Experiment in all cases: stopped-flow CO2 hydrase assay
Format in all cases: biochemical
hCA IX = target: T1, hCA IX (Homo sapiens, UniProt Q16790)
T1 construct: gene CA9; recombinant, obtained in-house; transmembrane isoform

hCA VII = target: T2, hCA VII (Homo sapiens, UniProt P43166)
T2 construct: gene CA7; recombinant, obtained in-house; cytosolic isoform
T2 sequence (P43166 whole entry, canonical isoform): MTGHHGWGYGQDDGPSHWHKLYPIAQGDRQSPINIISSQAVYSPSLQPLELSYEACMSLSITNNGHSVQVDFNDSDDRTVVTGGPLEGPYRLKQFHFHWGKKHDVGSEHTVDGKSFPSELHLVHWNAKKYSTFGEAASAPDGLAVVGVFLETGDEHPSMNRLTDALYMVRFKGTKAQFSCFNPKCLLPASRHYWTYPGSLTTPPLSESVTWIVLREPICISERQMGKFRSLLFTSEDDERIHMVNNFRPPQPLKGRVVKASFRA
Excerpt: stopped-flow CO2 hydrase assay on hCA VII

hCA II = target: T3, hCA II (Homo sapiens, UniProt P00918)
T3 construct: gene CA2; recombinant, obtained in-house; cytosolic isoform
Excerpt: stopped-flow CO2 hydrase assay on hCA II

hCA I = target: T4, hCA I (Homo sapiens, UniProt P00915)
T4 construct: gene CA1; recombinant, obtained in-house; cytosolic isoform
T4 sequence (P00915 2-261): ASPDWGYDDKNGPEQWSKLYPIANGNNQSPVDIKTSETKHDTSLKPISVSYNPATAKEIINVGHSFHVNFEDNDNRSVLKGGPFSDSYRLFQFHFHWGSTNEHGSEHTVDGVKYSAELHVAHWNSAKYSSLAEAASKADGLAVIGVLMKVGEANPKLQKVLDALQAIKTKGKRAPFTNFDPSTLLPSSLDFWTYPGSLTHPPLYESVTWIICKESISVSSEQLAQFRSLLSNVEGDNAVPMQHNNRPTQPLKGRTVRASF

In the case of `NC(=S)Nc1ccc(S(N)(=O)=O)cc1` [compound 1, 4-Thioureido-benzenesulfonamide], the Ki (hCA IX) is reported as 32.9 nM, the Ki (hCA VII) is reported as 75.4 nM and the Ki (hCA II) is reported as 70 nM. The Ki (hCA I) was 471 nM.
`Nc1nc2ccc(S(N)(=O)=O)cc2s1` [compound 2, 2-Aminobenzo[d]thiazole-6-sulfonamide] was tested, and the Ki (hCA IX) was 3.7 nM, the Ki (hCA VII) was 84.2 nM and the Ki (hCA II) was 33.6 nM. It also gave a Ki (hCA I) of 84.1 nM.
`NC(=S)Nc1cccc(S(N)(=O)=O)c1` [compound 3, 3-Thioureidobenzenesulfonamide] gave a Ki (hCA IX) of 296 nM, a Ki (hCA VII) of 75 nM and a Ki (hCA II) of 149 nM. For the same compound, the Ki (hCA I) was 917 nM.
Compound `Nc1nc2cc(S(N)(=O)=O)ccc2s1` [compound 4, 2-Aminobenzo[d]thiazole-5-sulfonamide] has a Ki (hCA IX) of 38.2 nM, a Ki (hCA VII) of 56.5 nM and a Ki (hCA II) of 369 nM. For the same compound, the Ki (hCA I) was 795 nM.
Work on `Nc1nc2c(Br)cc(S(N)(=O)=O)cc2s1` [compound 5, 2-Amino-4-bromobenzo[d]thiazole-6-sulfonamide] yielded a Ki (hCA IX) of 16.2 nM, a Ki (hCA VII) of 31.1 nM and a Ki (hCA II) of 8.7 nM. It also gave a Ki (hCA I) of 306 nM.
For `Nc1nc2c(Br)c(S(N)(=O)=O)ccc2s1` [compound 6, 2-Amino-4-bromobenzo[d]thiazole-5-sulfonamide], the Ki (hCA IX) was 29.6 nM, the Ki (hCA VII) was 0.8 nM and the Ki (hCA II) was 7.8 nM. For the same compound, the Ki (hCA I) was 705 nM.
For `Nc1nc2c(I)cc(S(N)(=O)=O)cc2s1` [compound 7, 2-Amino-4-iodobenzo[d]thiazole-6-sulfonamide], the Ki (hCA IX) was 212 nM, the Ki (hCA VII) was 92.3 nM and the Ki (hCA II) was 15.1 nM. It also gave a Ki (hCA I) of 606 nM.
With `Nc1nc2c(I)c(S(N)(=O)=O)ccc2s1` [compound 8, 2-Amino-4-iodobenzo[d]thiazole-5-sulfonamide] the Ki (hCA IX) was 100 nM, the Ki (hCA VII) was 42.2 nM and the Ki (hCA II) was 51.5 nM. The Ki (hCA I) was 482 nM.
In the case of `CC(=O)Nc1nc2ccc(S(N)(=O)=O)cc2s1` [compound 9, N-(6-sulfamoylbenzo[d]thiazol-2-yl)acetamide], the Ki (hCA IX) is reported as 23.2 nM, the Ki (hCA VII) is reported as 54.4 nM and the Ki (hCA II) is reported as 20.8 nM. For the same compound, the Ki (hCA I) was 361 nM.
For `CC(=O)Nc1nc2c(Br)cc(S(N)(=O)=O)cc2s1` [compound 10, N-(4-bromo-6-sulfamoylbenzo[d]thiazol-2-yl)acetamide], the Ki (hCA IX) was 34.4 nM, the Ki (hCA VII) was 80.6 nM and the Ki (hCA II) was 211 nM. It also gave a Ki (hCA I) of 2330 nM.
`CC(=O)Nc1nc2cc(S(N)(=O)=O)ccc2s1` [compound 11, N-(5-sulfamoylbenzo[d]thiazol-2-yl)acetamide] was tested, and the Ki (hCA IX) was 32.6 nM, the Ki (hCA VII) was 81.5 nM and the Ki (hCA II) was 42 nM. The Ki (hCA I) was 341 nM.
With `NS(=O)(=O)c1ccc2nc(NC(=O)c3ccccc3C(=O)O)sc2c1` [compound 12, 2-((6-Sulfamoylbenzo[d]thiazol-2-yl)carbamoyl)benzoic acid] the Ki (hCA IX) was 10 nM, the Ki (hCA VII) was 46.5 nM and the Ki (hCA II) was 13.5 nM. For the same compound, the Ki (hCA I) was 97.1 nM.
